Results taken from EP0759299B1, “Potentiation of serotonin response” (ELI LILLY AND COMPANY, priority 1995, dated 1997).

Legend:
Assay type in all cases: in vivo, Sprague-Dawley rats
NE = assay: Microdialysis assay of monoamines in hypothalamus of conscious rats: NE; settings: percent of baseline, pindolol s.c. infusion 50 mg/kg/hr from 120 min, single animal
Procedure: (§1) A David Kopf stereotaxic instrument was used to implant the probe unilaterally in the hypothalamus at coordinates rostral -1.5 mm, lateral -1.3 mm, and ventral -9.0 mm (Paxinos and Watson, 1986). After a 48 hour recovery period, rats were placed in a large plastic bowl with a mounted liquid swivel system (CMA/120 system for freely moving animals, Bioanalytical Systems, West Lafayette, IN). Filtered artificial cerebrospinal fluid (CSF) (150 mM NaCl, 3.0 mM KCl, 1.7 mM CaCl2, and 0.9 mM MgCl2) was perfused through the probe at a rate of […]. The output dialysate line was fitted to a tenport HPLC valve with a 20 µl loop. At the end of each 30 minute sampling period, dialysate collected in the loop was injected on an analytical column (Spherisorb 3 µ ODS2, 2X150 mm, Keystone Scientific).
(§2) The method used to measure monoamines was as described by Perry and Fuller (1992). Briefly, dialysate collected in the 20 µl loop was assayed for 5-HT, NE and DA. The 20 µl injection went onto the column with a mobile phase which resolved NE, DA, and 5-HT: 75 mM potassium acetate, 0.5 mM ethylenediaminetetraacetic acid, 1.4 mM sodium octanesulfonic acid and 8% methanol, pH 4.9. The mobile phase for the amine column was delivered with a flow programmable pump at an initial flow rate of 0.2 ml/min increasing to 0.3 ml/min at 5 min then decreasing back to 0.2 ml/min at 26 min with a total run time of 30 min. Flow programming was used to elute the 5-HT within a 25 min time period. The electrochemical detector (EG&G, Model 400) for the amine column was set at a potential of 400 mV and a sensitivity of 0.2 nA/V. The data was collected and analyzed with a Hewlett-Packard HP1000 chromatography system which measured peak heights and calculated sample concentrations. Basal levels were measured for at least 90 minutes prior to drug administration.
Extracellular levels of the amines in microdialysates were calculated by comparing peak heights with those of 50 pmole standards. […]

DA = assay: Microdialysis assay of monoamines in hypothalamus of conscious rats: DA; settings: percent of baseline, pindolol s.c. infusion 50 mg/kg/hr from 120 min, single animal
Procedure: as §1, §2
(§3) Extracellular levels of the amines in microdialysates were calculated by comparing peak heights with those of 50 pmole standards. The mean value of the four samples immediately preceding drug administration served as the basal level for each experiment and data was converted to percent of basal. Paired t-tests were used to compare the mean of the basal values from the time point immediately preceding drug administration to those of each time point thereafter.

5-HT = assay: Microdialysis assay of monoamines in hypothalamus of conscious rats: 5-HT; settings: L-tryptophan 100 mg/kg i.p. at 150 min, single animal
Procedure: as §1, §2, §3

SMILES | NE (%) (NE; Test 2, 150 min) | NE (%) (NE; Test 2, 210 min) | NE (%) (NE; Test 2, 240 min) | DA (%) (DA; Test 2, 150 min) | DA (%) (DA; Test 2, 180 min) | DA (%) (DA; Test 2, 210 min) | DA (%) (DA; Test 2, 240 min) | 5-HT (5-HT; Test 1, 180 min) | 5-HT (5-HT; Test 1, 210 min) | 5-HT (5-HT; Test 1, 240 min) | 5-HT (5-HT; Test 1, 270 min)
CC(C)NCC(O)COc1cccc2[nH]ccc12 (racemic) [pindolol, 4-(2-hydroxy-3-isopropylaminopropoxy)-indole] | 221.5 | 232.5 | 261.9 | 87.2 | 73.2 | 70.3 | 68.5 |  |  |  | 
N[C@@H](Cc1c[nH]c2ccccc12)C(=O)O [L-tryptophan] |  |  |  |  |  |  |  | 88.5% of basal | 83.6% of basal | 76.3% of basal | 73.9% of basal
